According to patent US20110201656A1, “NOVEL DIPHENYL 1,2,3-TRIAZOLE DERIVATIVES USEFUL AS MODULATORS OF NICOTINIC ACETYLCHOLINE RECEPTORS” (NEUROSEARCH A/S, priority 2008, published 2011):

Columns and labels:
[1] = molecular target: T1, wild-type nAChR α7 receptors (Homo sapiens, UniProt P36544); experiment: Positive modulation of nAChR α7 currents in Xenopus laevis oocytes (two-electrode voltage clamp); format: cell-based; settings: nAChR α7 expressed in Xenopus laevis oocytes, clamped at −60 mV, 100 μM acetylcholine; for Emax: (test-control)/control×100%, read-out: calculated EC50 Imax (maximal modulation of the control response); for EC50: test compound 0.01-31.6 μM, read-out: calculated EC50 (positive modulation of acetylcholine-induced current)
T1 construct: expressed in transfected cells; host or cells: Xenopus laevis oocytes
T1 sequence (P36544 23-502): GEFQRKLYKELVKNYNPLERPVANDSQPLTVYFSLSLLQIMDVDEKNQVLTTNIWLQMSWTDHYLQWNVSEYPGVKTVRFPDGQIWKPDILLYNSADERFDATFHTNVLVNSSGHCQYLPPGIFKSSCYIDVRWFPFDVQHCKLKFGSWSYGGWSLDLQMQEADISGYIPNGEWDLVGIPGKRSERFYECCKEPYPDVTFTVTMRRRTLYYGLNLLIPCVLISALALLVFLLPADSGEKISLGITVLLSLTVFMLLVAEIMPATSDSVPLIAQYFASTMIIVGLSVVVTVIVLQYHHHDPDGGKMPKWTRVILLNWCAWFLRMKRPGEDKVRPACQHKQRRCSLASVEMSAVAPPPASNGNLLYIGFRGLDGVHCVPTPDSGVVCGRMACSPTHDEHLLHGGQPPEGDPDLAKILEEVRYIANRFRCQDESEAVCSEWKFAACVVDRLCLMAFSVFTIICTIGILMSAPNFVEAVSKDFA
Protocol: In this example the positive modulation of wild-type nAChR α7 receptors by Compounds 3, 7 and 8, representative of the invention, was determined using nAChR a7 receptors heterologously expressed in Xenopus laevis oocytes.
The electrical current through the nAChR α7 channel was measured using conventional two-electrode voltage clamp and nAChR α7 currents were activated by applying pulses of agonist-containing solution onto the nAChR α7 expressing oocyte.
In brief, the oocytes were placed in a recording chambers and continuously super-fused with an Oocyte Ringer (OR) solution containing 90 mM NaCl, 2.5 mM KCl, 2.5 mM CaCl2, 1 mM MgCl2 and 5 mM HEPES (pH adjusted to 7.4). The oocytes were clamped at −60 mV and currents were induced by applying 20 s pulses of 100 μM acetylcholine dissolved in OR. The intervals between the acetylcholine applications were 5 minutes, during which the oocytes were washed with OR. The first three applications were control applications to insure a constant response level of 100 μM acetylcholine. For the subsequent test applications, increasing concentrations (0.01-31.6 μM) of the test compound were applied 30 s before and during the acetylcholine (100 μM) application, which caused a robust increase in the acetylcholine-induced current amplitude.
The positive modulation in the presence of Compound 4 was calculated as (test-control)/control×100% and the concentration response curve for this positive modulation was fitted to the sigmoidal logistic equation: I=Imax/(1+(EC50/[compound])^n), where Imax represents the maximal modulation of the control response, EC50 is the concentration causing a half maximal response, and n is the slope coefficient.

Emax [1] [%] | EC50 [1] [µM] | melting point [°C] | SMILES
119 | 14 | – | Cc1c(-c2ccc(O)cc2)nnn1-c1ccc(C(F)(F)F)cc1Cl [Compound 3, 4-[1-(2-Chloro-4-trifluoromethyl-phenyl)-5-methyl-1H-[1,2,3]triazol-4-yl]-phenol]
136 | 11 | – | OCc1c(-c2ccc(O)cc2)nnn1-c1ccc(C(F)(F)F)cc1Cl [Compound 8, 4-[1-(2-Chloro-4-trifluoromethyl-phenyl)-5-hydroxymethyl-1H-[1,2,3]triazol-4-yl]-phenol]
128 | 17 | – | COc1ccc(-c2nnn(-c3ccc(C(F)(F)F)cc3Cl)c2CO)cc1 [Compound 7, [3-(2-Chloro-4-trifluoromethyl-phenyl)-5-(4-methoxy-phenyl)-3H-[1,2,3]triazol-4-yl]-methanol]
– | – | 96.5 to 98.9 | COc1ccc(-c2nnn(-c3ccc(C(F)(F)F)cc3F)c2C)cc1 [Compound 1, 1-(2-Fluoro-4-trifluoromethyl-phenyl)-4-(4-methoxy-phenyl)-5-methyl-1H-[1,2,3]triazole]
